In patent US20250236608A1, “EGFR INHIBITORS” (Blueprint Medicines Corporation, priority 2022, published 2025):
pIC50: −log10 of the molar value.

Key:
[1] = target: EGFR L858R (Homo sapiens (Human), UniProt P00533, L858R); assay: Biochemical EGFR inhibition assay, EGFR L858R; settings: Caliper mobility shift; 1.0 mM ATP or ATP Km; read-out: Enz EGFR_L858R IC50
[2] = target: pEGFR (Tyr1068) in PC-9 cells (Ex19Del) (Homo sapiens (Human), UniProt P00533, DEL746-750); assay: PC-9 pEGFR AlphaLISA assay; type: cell-based; settings: 4 hours incubation, p-EGFR (Tyr1068) AlphaLISA, read-out: Ext pEGFR_PC-9 Ex19Del IC50
Chain of pEGFR (Tyr1068) in PC-9 cells (Ex19Del) (P00533 other isoform, or with tags, fused parts or gaps del 746-750): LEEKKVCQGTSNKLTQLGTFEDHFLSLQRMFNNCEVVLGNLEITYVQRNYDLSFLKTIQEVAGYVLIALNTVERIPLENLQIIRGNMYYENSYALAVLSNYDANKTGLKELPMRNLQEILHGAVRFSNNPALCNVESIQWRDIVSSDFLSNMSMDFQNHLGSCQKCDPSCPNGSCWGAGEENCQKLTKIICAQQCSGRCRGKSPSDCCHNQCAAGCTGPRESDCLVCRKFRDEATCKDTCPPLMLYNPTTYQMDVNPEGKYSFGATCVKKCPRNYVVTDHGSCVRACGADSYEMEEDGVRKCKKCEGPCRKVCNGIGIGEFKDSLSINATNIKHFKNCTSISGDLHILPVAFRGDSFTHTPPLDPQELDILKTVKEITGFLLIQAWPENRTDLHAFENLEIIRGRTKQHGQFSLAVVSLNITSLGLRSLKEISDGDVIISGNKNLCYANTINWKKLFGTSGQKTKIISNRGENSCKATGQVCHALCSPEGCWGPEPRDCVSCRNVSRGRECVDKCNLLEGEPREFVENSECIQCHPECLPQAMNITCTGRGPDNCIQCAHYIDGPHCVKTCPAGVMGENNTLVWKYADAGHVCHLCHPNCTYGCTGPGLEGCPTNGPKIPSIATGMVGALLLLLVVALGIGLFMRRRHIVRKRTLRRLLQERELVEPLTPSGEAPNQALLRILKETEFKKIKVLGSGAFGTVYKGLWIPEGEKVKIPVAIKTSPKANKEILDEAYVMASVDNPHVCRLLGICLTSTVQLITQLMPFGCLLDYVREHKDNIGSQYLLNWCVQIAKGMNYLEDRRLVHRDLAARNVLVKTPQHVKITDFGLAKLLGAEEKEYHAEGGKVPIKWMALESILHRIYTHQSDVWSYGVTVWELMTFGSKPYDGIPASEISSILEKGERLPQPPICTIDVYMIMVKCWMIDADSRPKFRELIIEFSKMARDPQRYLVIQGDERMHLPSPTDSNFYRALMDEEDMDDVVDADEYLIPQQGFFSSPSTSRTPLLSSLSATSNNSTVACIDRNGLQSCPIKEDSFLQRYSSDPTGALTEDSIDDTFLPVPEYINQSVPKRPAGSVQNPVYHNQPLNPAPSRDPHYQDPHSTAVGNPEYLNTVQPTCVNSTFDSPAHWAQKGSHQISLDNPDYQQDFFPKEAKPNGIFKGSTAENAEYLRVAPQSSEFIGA
In short: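 Readout: AlphaLISA SureFire Ultra signal in cell lysates, with acceptor beads for 1.5-2 h and donor beads overnight at room temperature in the dark. Beforehand, unstimulated cells in 10% FBS medium received compounds (10 points, 4-fold steps) for 4 h at 37° C. IC50 came from percent inhibition curves.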

[3] = target: EGFR (d746-750) (Homo sapiens (Human), UniProt P00533, DEL746-750); assay: Biochemical EGFR inhibition assay, EGFR (d746-750); settings: Caliper mobility shift; 1.0 mM ATP or ATP Km; read-out: Enz EGFR_Exon19-del746-750 IC50
Chain of EGFR (d746-750) (P00533 other isoform, or with tags, fused parts or gaps del 1-694/del 746-750 limits assumed): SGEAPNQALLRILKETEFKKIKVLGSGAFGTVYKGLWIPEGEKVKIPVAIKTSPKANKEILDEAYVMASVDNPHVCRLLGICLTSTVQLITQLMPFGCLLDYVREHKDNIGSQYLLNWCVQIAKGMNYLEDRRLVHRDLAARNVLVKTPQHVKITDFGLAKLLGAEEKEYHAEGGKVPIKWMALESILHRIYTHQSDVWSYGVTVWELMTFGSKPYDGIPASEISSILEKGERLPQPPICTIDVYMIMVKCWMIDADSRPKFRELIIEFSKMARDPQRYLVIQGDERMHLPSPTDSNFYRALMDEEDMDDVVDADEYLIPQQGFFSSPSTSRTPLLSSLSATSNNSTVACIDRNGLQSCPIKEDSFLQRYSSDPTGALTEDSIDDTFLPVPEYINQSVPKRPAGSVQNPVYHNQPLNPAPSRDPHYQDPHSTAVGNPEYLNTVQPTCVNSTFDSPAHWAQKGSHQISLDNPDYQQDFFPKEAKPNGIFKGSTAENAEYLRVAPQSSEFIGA

Chain of EGFR L858R (P00533 25-1210 L858R): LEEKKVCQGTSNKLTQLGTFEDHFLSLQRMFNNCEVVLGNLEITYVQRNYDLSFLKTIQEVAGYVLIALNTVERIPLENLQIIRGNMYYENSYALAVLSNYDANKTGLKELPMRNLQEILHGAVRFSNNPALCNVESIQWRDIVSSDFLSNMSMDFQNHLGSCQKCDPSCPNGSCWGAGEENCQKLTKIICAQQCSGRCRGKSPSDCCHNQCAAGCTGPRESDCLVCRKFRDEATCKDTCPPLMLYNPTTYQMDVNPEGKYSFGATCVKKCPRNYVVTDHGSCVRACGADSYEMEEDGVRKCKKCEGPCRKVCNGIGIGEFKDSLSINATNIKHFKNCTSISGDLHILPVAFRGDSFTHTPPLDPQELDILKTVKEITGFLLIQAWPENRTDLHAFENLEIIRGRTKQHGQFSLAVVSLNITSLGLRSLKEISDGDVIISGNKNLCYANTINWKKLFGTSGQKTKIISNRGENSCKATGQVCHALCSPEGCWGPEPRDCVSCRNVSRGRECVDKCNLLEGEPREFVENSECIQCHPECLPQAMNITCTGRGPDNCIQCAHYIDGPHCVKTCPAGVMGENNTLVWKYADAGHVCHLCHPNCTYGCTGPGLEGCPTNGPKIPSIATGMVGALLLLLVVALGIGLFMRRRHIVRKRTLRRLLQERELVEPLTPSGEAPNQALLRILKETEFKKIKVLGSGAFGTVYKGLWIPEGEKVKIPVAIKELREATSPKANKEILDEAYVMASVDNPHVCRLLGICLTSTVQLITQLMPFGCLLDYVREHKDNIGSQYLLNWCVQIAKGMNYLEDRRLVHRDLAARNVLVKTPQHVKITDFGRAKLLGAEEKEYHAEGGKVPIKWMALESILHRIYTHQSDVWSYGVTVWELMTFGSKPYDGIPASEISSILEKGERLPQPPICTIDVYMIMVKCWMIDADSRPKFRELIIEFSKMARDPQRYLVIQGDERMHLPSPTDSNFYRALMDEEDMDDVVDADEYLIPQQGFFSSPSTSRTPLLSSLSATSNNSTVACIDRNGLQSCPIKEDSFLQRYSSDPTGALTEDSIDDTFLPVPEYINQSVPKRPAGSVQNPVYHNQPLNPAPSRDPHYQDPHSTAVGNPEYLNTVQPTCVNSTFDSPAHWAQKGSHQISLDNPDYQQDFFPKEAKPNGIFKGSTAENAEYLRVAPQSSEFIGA

Compound	pIC50 [1]	pIC50 [2]	pIC50 [3]
CCn1cc(-c2ncnc3cc(OC)c(NC(=O)[C@]45COC[C@H]4C5)cc23)c(-c2ccccc2)n1 [Example 289, (1S,5S)—N-(4-(1-ethyl-3-phenyl-1H-pyrazol-4-yl)-7-methoxyquinazolin-6-yl)-3-oxabicyclo[3.1.0]hexane-1-carboxamide]	8.82	8.82	9.10
COc1cc2ncnc(-c3cn(C)nc3-c3ccccc3)c2cc1OC(=O)N1CCN(C)[C@H](C)[C@@H]1C [Example 98, 7-methoxy-4-(1-methyl-3-phenyl-1H-pyrazol-4-yl)quinazolin-6-yl (2S,3R)-2,3,4-trimethylpiperazine-1-carboxylate]	8.17	8.03	8.47
CCn1cc(-c2ncnc3cc(-c4cnn(C)c4)ccc23)c(-c2ccccc2)n1 [Example 496]	9.15	9.40	9.22
COc1cc2ncnc(-c3cn(C)nc3-c3ccccc3)c2nc1O[C@@H](C)c1cn(C)nn1 [Example 44, (S)-7-methoxy-6-(1-(1-methyl-1H-1,2,3-triazol-4-yl)ethoxy)-4-(1-methyl-3-phenyl-1H-pyrazol-4-yl)pyrido[3,2-d]pyrimidine]	8.41	7.84	8.62
COc1cc2ncnc(-c3cn(C)nc3-c3ccccc3)c2cc1-c1cnc(C(C)(C)O)s1 [Example 149, 2-(5-(7-methoxy-4-(1-methyl-3-phenyl-1H-pyrazol-4-yl)quinazolin-6-yl)thiazol-2-yl) propan-2-ol]	8.31	7.89	8.68
COc1cc2ncnc(-c3cn(CC(F)F)nc3-c3ccccc3)c2cc1NC(=O)c1cnc(C)s1 [Example 274, N-(4-(1-(2,2-difluoroethyl)-3-phenyl-1H-pyrazol-4-yl)-7-methoxyquinazolin-6-yl)-2-methylthiazole-5-carboxamide]	8.82	9.22	9.05
[2H]C([2H])([2H])Oc1cc2ncnc(-c3cnn(C([2H])([2H])[2H])c3-c3ccccc3)c2nc1NC(=O)C1(C(F)(F)F)CC1 [Example 487, N-(7-(methoxy-d3)-4-(1-(methyl-d3)-5-phenyl-1H-pyrazol-4-yl)pyrido[3,2-d]pyrimidin-6-yl)-1-(trifluoromethyl)cyclopropane-1-carboxamide]	7.30	6.76	7.71

Continued, values first:

pIC50 [1]	pIC50 [2]	pIC50 [3]	Compound
6.96	7.92	8.01	CCOc1cc2ncnc(-c3cn(C)nc3-c3ccccc3)c2cc1N1CCOCC1=O [Example 267, 4-(7-ethoxy-4-(1-methyl-3-phenyl-1H-pyrazol-4-yl)quinazolin-6-yl)morpholin-3-one]
8.89	8.92	9.15	CCOc1cc2ncnc(-c3cn(C)nc3-c3ccccc3)c2nc1NC(=O)[C@]12C[C@H]1CN(C)C2 (single isomer, unassigned) [Example 378, (1R,5R)—N-(7-ethoxy-4-(1-methyl-3-phenyl-1H-pyrazol-4-yl)pyrido[3,2-d]pyrimidin-6-yl)-3-methyl-3-azabicyclo[3.1.0]hexane-1-carboxamide or (1S,5S)—N-(7-ethoxy-4-(1-methyl-3-phenyl-1H-pyrazol-4-yl)pyrido[3,2-d]pyrimidin-6-yl)-3-methyl-3-azabicyclo[3.1.0]hexane-1-carboxamide]
7.60	7.98	8.80	COc1cc2ncnc(-c3cn(C)nc3-c3ccccc3)c2nc1NC(=O)C1(F)CCN(C)C1 (stereo not drawn) [Example 433, 3-fluoro-N-(7-methoxy-4-(1-methyl-3-phenyl-1H-pyrazol-4-yl)pyrido[3,2-d]pyrimidin-6-yl)-1-methylpyrrolidine-3-carboxamide]
8.41	8.11	8.92	COc1cc2ncnc(-c3cn(C)nc3-c3ccccc3)c2nc1NC(=O)c1cn(C(F)(F)F)nc1C [Example 428, N-(7-methoxy-4-(1-methyl-3-phenyl-1H-pyrazol-4-yl)pyrido[3,2-d]pyrimidin-6-yl)-3-methyl-1-(trifluoromethyl)-1H-pyrazole-4-carboxamide]
